Measurements reported in patent US9963464B2, “Macrocyclic compounds” (Bayer Pharma Aktiengesellschaft, priority 2014, dated 2018).
Where two headings read alike, the source gives them in different places.

Experiments:
[1] = test system: DU145 cells; assay: Proliferation assay DU145; format: cell-based, human; conditions: 4 days, crystal violet, read-out: Inhibition of DU145 cell proliferation IC50
Description: (§1) Cultivated tumour cells (HeLa, human cervical tumour cells, ATCC CCL-2; NCI-H460, human non-small cell lung carcinoma cells, ATCC HTB-177; A2780, human ovarian carcinoma cells, ECACC #93112519; DU 145, hormone-independent human prostate carcinoma cells, ATCC HTB-81; HeLa-MaTu-ADR, multidrug-resistant human cervical carcinoma cells, EPO-GmbH Berlin; Caco-2, human colorectal carcinoma cells, ATCC HTB-37; B16F10, mouse melanoma cells, ATCC CRL-6475) were plated at a density of 5,000 cells/well (DU145, HeLa-MaTu-ADR), 3,000 cells/well (NCI-H460, HeLa), 2,500 cells/well (A2780), 1,500 cells/well (Caco-2), or 1,000 cells/well (B16F10) in a 96-well multititer plate in 200 μL of their respective growth medium supplemented 10% fetal calf serum. After 24 hours, the cells of one plate (zero-point plate) were stained with crystal violet (see below), while the medium of the other plates was replaced by fresh culture medium (200 μl), to which the test substances were added in various concentrations (0 μM, as well as in the range of 0.001-10 μM). The cells were incubated for 4 days in the presence of test substances. Cell proliferation was determined by staining the cells with crystal violet: the cells were fixed by adding 20 μl/measuring point of an 11% glutaric aldehyde solution for 15 minutes at room temperature. After three washing cycles of the fixed cells with water, the plates were dried at room temperature. The cells were stained by adding 100 μl/measuring point of a 0.1% crystal violet solution (pH 3.0). After three washing cycles of the stained cells with water, the plates were dried at room temperature. The dye was dissolved by adding 100 μl/measuring point of a 10% acetic acid solution. The extinction was determined by photometry at a wavelength of 595 nm. The change of cell number, in percent, was calculated by normalization of the measured values to the extinction values of the zero-point plate (=0%) and the extinction of the untreated (0 μm) cells (=100%). The IC50 values (inhibitory concentration at 50% of maximal effect) were determined by means of a 4 parameter fit. Non-adherent MOLM-13 human acute myeloid leukemia cells (DSMZ ACC 554) were seeded at a density of 5,000 cells/well in a 96-well multititer plate in 100 μL of growth medium supplemented 10% fetal calf serum. After 24 hours, cell viability of one plate (zero-point plate) was determined with the Cell Titre-Glo Luminescent Cell Viability Assay (Promega), while 50 μL of test compound containing medium was added to the wells of the other plates (final concentrations in the range of 0.001-1 μM and DMSO controls). Cell viability was assessed after 72-hour exposure with the Cell Titre-Glo Luminescent Cell Viability Assay (Promega). IC50 values (inhibitory concentration at 50% of maximal effect) were determined by means of a 4 parameter fit on measurement data which were normalized to vehicle (DMSO) treated cells (=100%) and measurement readings taken immediately before compound exposure (=0%).

[2] = test system: HeLa cells; assay: Proliferation assay HeLa; format: cell-based, human; conditions: 4 days, crystal violet, read-out: Inhibition of HeLa cell proliferation IC50
Description: as §1

[3] = target: T1, CDK2/CycE (Homo sapiens, UniProt P24941); assay: CDK2/CycE kinase assay (TR-FRET, Method 2a); format: biochemical; conditions: 10 μM ATP
T1 construct: GST; purchased ProQinase GmbH (Freiburg, Germany); host or cells: insect cells (Sf9)
Description: 2a. CDK2/CycE Kinase Assay:
CDK2/CycE-inhibitory activity of compounds of the present invention was quantified employing the CDK2/CycE TR-FRET assay as described in the following paragraphs:
Recombinant fusion proteins of GST and human CDK2 and of GST and human CycE, expressed in insect cells (Sf9) and purified by Glutathion-Sepharose affinity chromatography, were purchased from ProQinase GmbH (Freiburg, Germany). As substrate for the kinase reaction biotinylated peptide biotin-Ttds-YISPLKSPYKISEG (C-terminus in amid form) was used which can be purchased e.g. from the company JERINI Peptide Technologies (Berlin, Germany).
For the assay 50 nl of a 100 fold concentrated solution of the test compound in DMSO was pipetted into a black low volume 384 well microtiter plate (Greiner Bio-One, Frickenhausen, Germany), 2 μl of a solution of CDK2/CycE in aqueous assay buffer [50 mM Tris/HCl pH 8.0, 10 mM MgCl2, 1.0 mM dithiothreitol, 0.1 mM sodium ortho-vanadate, 0.01% (v/v) Nonidet-P40 (Sigma)] were added and the mixture was incubated for 15 min at 22° C. to allow pre-binding of the test compounds to the enzyme before the start of the kinase reaction. […] The concentration of CDK2/CycE was adjusted depending of the activity of the enzyme lot and was chosen appropriate to have the assay in the linear range, typical concentrations were in the range of 130 ng/mL. The reaction was stopped by the addition of 5 μl of a solution of TR-FRET detection reagents (0.2 μM streptavidine-XL665 [Cisbio Bioassays, Codolet, France] and 1 nM anti-RB(pSer807/pSer811)-antibody from BD Pharmingen [#558389] and 1.2 nM LANCE EU-W1024 labeled anti-mouse IgG antibody [Perkin-Elmer, product no. AD0077]) in an aqueous EDTA-solution (100 mM EDTA, 0.2% (w/v) bovine serum albumin in 100 mM HEPES pH 7.5).
The resulting mixture was incubated 1 h at 22° C. to allow the formation of complex between the phosphorylated biotinylated peptide and the detection reagents. Subsequently the amount of phosphorylated substrate was evaluated by measurement of the resonance energy transfer from the Eu-chelate to the streptavidine-XL. Therefore, the fluorescence emissions at 620 nm and 665 nm after excitation at 350 nm was measured in a TR-FRET reader, e.g. a Rubystar (BMG Labtechnologies, Offenburg, Germany) or a Viewlux (Perkin-Elmer). The ratio of the emissions at 665 nm and at […] was taken as the measure for the amount of phosphorylated substrate. The data were normalised (enzyme reaction without inhibitor=0% inhibition, all other assay components but no enzyme=100% inhibition).

[4] = test system: NCI-H460 cells; assay: Proliferation assay NCI-H460; format: cell-based, human; conditions: 4 days, crystal violet, read-out: Inhibition of NCI-H460 cell proliferation IC50
Description: as §1

[5] = test system: Caco-2 cells; assay: Proliferation assay Caco-2; format: cell-based, human; conditions: 4 days, crystal violet, read-out: Inhibition of Caco-2 cell proliferation IC50
Description: as §1

[6] = test system: HeLa-MaTu-ADR cells; assay: Proliferation assay HeLa-MaTu-ADR; format: cell-based, human; conditions: 4 days, crystal violet, read-out: Inhibition of HeLa-MaTu-ADR cell proliferation IC50
Description: as §1

Compound | IC50 ([1]; Homo sapiens, DU-145, 96 h) [nM] | IC50 ([2]; Homo sapiens, HeLa, 96 h) [nM] | IC50 [3] [nM] | IC50 ([4]; Homo sapiens, NCI-H460, 96 h) [nM] | IC50 ([5]; Homo sapiens, Caco-2, 96 h) [nM] | IC50 ([6]; Homo sapiens, 96 h) [nM] | IC50 [1] [nM] | IC50 [2] [nM] | IC50 [4] [nM] | IC50 [5] [nM] | IC50 [6] [nM]
CS(=N)(=O)Cc1cc2cc(c1)OCCCOc1cc(F)ccc1-c1nc(ncc1F)N2 (racemic) [Example 15, (rac)-15,19-difluoro-8-[(S-methylsulfonimidoyl)methyl]-3,4-dihydro-2H,11H-12,16-(azeno)-10,6-(metheno)-1,5,11,13-benzodioxadiazacyclooctadecine] | 17 | 9 | 26 | 30 | 17 | 14 |  |  |  |  | 
CS(=O)(Cc1cc2nc(c1)OCCCOc1cc(F)ccc1-c1cc(ncc1F)N2)=NS(=O)(=O)CCN (racemic) [Example 23, (rac)-2-amino-N-[{[15,19-difluoro-3,4-dihydro-2H,11H-10,6-(azeno)-12,16-(metheno)-1,5,11,13-benzodioxadiazacyclooctadecin-8-yl]methyl}(methyl)oxido-λ^6-sulfanylidene]ethanesulfonamide] |  | 57 | 30.2 | 741 | 422 | 396 | 833 |  |  |  | 
({[15,19-difluoro-3,4-dihydro-2H,11H-10,6-(azeno)-12,16-(metheno)-1,5,11,13-benzodioxadiazacyclooctadecin-8-yl]methyl}sulfonyl)acetic acid [Example 27] |  |  | 2.3 |  |  |  | 3360 | 1050 | 3040 | 2100 | 1280

Further lines, with some results ahead:

IC50 ([1]; Homo sapiens, DU-145, 96 h) [nM] | IC50 ([2]; Homo sapiens, HeLa, 96 h) [nM] | IC50 [3] [nM] | IC50 ([4]; Homo sapiens, NCI-H460, 96 h) [nM] | IC50 ([5]; Homo sapiens, Caco-2, 96 h) [nM] | IC50 ([6]; Homo sapiens, 96 h) [nM] | Compound | IC50 [1] [nM] | IC50 [2] [nM] | IC50 [4] [nM] | IC50 [5] [nM] | IC50 [6] [nM]
55 | 26 | 11.7 | 35 | 24 | 30 | CCOC(=O)N=S(C)(=O)Cc1cc2nc(c1)OCCCOc1cc(F)ccc1-c1cc(ncc1F)N2 (racemic) [Example 20, (rac)-ethyl [{[15,19-difluoro-3,4-dihydro-2H,11H-10,6-(azeno)-12,16-(metheno)-1,5,11,13-benzodioxadiazacyclooctadecin-8-yl]methyl}(methyl)oxido-λ^6-sulfanylidene]carbamate] |  |  |  |  | 
78 | 31 | 15.4 | 49 | 33 | 38 | CN=S(C)(=O)Cc1cc2nc(c1)OCCCOc1cc(F)ccc1-c1cc(ncc1F)N2 (racemic) [Example 19, (rac)-8-[(N,S-dimethylsulfonimidoyl)methyl]-15,19-difluoro-3,4-dihydro-2H,11H-10,6-(azeno)-12,16-(metheno)-1,5,11,13-benzodioxadiazacyclooctadecine] |  |  |  |  | 
17 | 12 | 5 | 20 | 11 | 9 | CS(=O)(=O)Cc1cc2nc(c1)OCCCOc1cc(F)ccc1-c1cc(ncc1F)N2 [Example 8, 15,19-difluoro-8-[(methylsulfonyl)methyl]-3,4-dihydro-2H,11H-10,6-(azeno)-12,16-(metheno)-1,5,11,13-benzodioxadiazacyclooctadecine] |  |  |  |  | 
31 | 11 | 11.6 | 28 | 16 | 15 | CS(=O)(Cc1cc2nc(c1)OCCCOc1cc(F)ccc1-c1cc(ncc1F)N2)=NC(=O)OCCCl (racemic) [Example 21, (rac)-2-chloroethyl [{[15,19-difluoro-3,4-dihydro-2H,11H-10,6-(azeno)-12,16-(metheno)-1,5,11,13-benzodioxadiazacyclooctadecin-8-yl]methyl}(methyl)oxido-λ^6-sulfanylidene]carbamate] |  |  |  |  | 
